Results from patent US20200270225A1, “Chiral Diacylhydrazine Ligands for Modulating the Expression of Exogenous Genes via an Ecdysone Receptor Complex” (Intrexon Corporation, priority 2007, published 2020).
Like-named read-outs stand apart in the source and are kept apart here.

How the values were obtained:
[1] = target: T1, [V390I/Y410E/E274V]-CfEcR (Choristoneura fumiferana, UniProt O77240); format: cell-based; settings: 3T3 Cells; for RMFI (relative maximum fold induction): relative to GS-E ligand
T1 construct: assay construct b835
In short: (§1)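 NIH3T3 cells were transiently co-transfected with GAL4-DBD fused to CfEcR DEF domains (wild-type or V390I/Y410E/E274V), VP16-AD fused to chimeric human/Locusta RXR, and a GAL4-response luciferase reporter. Ligand was given at 8 doses, 0.01–33 µM, 0.33% DMSO, luciferase read at 48 h. EC50 came from fold induction over DMSO via three-parameter logistic fit; Relative Max FI was taken versus GS™-E ligand.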

[2] = target: wild-type Choristoneura fumiferana EcR (D, E and F domains) (Choristoneura fumiferana, UniProt O77240); format: cell-based; settings: WT-CtEcR, 3T3 Cells; for RMFI (relative maximum fold induction): relative to GS-E ligand
In short: as §1

[3] = test system: RheoSwitch® Therapeutic System (RTS) gene expression; experiment: In vivo induction of RTS SEAP reporter in electroporated mice; set-up: species or system C57BL6 mice; settings: intraperitoneal injection 26 nmol/mouse; monitored seventeen days
Excerpt: The wild-type D, E, and F domains from spruce budworm Choristoneura fumiferana EcR (“CfEcR-DEF”; SEQ ID NO: 1) were mutated [V107 (gtt)→1107 (att) and Y127 (tac)→E127 (gag)] and fused to a GAL4 DNA binding domain (“Gal4DBD1-147”; SEQ ID NO: 2). Helices 1 through 8 of the EF domains from Homo sapiens RXRPβ (“HsRXRβ-EF”; nucleotides 1-465 of SEQ ID NO: 4) and helices 9 through 12 of the EF domains of Locusta migratoria Ultraspiracle Protein (“LmUSP-EF”; nucleotides 403-630 of SEQ ID NO: 5) were fused to the transactivation domain from VP16 (“VP16AD”; SEQ ID NO: 6), which regulates a reporter gene human secreted alkaline phosphatase (“SEAP”, SEQ ID NO: 12) that was placed under the control of a 6xGAL4 response element (SEQ ID NO: 13) and a transthyretin promoter (SEQ ID NO: 14). Each element of the gene switch was on a separate plasmid. Receptor expression was under the control of a CMV promoter (SEQ ID NO: 15). Induction was evaluated by the amount of reporter protein expressed in the presence of ligand.
SEAP expression in serum of mice was evaluated after electroporation of the gene switch into mouse quadriceps. Mice were anesthetized with 2 μL/g of a mixture of ketamine (100 mg/mL) and xylazine (20 mg/mL). Animals were then shaved, DNA vectors injected into the muscle in a volume of 2×50 μL polyglutamic acid (12 mg/mL water), electrode conductivity gel applied, and an electrode caliber (1 cm×1 cm; model 384) was placed on hind leg. The muscle was electroporated with 200 V/cm, 8 times, for 20 msec/pulse, at 1 sec time intervals. The transverse electrical field direction was reversed after the animals received half of the pulses. Electroporation was performed with an ECM 830 electroporator from BTX Molecular Delivery Systems.
[…] In other experiments the concentration of ligand was decreased to 26 nmol/50 μL of DMSO/mouse. […]
Mouse serum was obtained by centrifugation of blood acquired by retroorbital bleeding with a small glass capillary tube. SEAP quantification was determined using a Clontech Great Escape chemiluminescence kit and by comparison with the Clontech SEAP standard. […]

SMILES	melting point	EC50 ([1]; R)	RMFI (relative maximum fold induction) ([1]; R)	EC50 ([2]; R)	RMFI (relative maximum fold induction) ([2]; R)	RTS gene reporter (SEAP) expression in mouse serum [3]	EC50 ([1]; S)	RMFI (relative maximum fold induction) ([1]; S)	EC50 ([2]; S)	RMFI (relative maximum fold induction) ([2]; S)
CCC[C@@H](N(NC(=O)c1ccc2ccccc2c1)C(=O)c1cc(C)cc(C)c1)C(C)(C)C [Example 24, (R)-3,5-Dimethyl-benzoic acid N-(1-tert-butyl-butyl)-N′-(naphthalene-2-carbonyl)-hydrazide]	91 °C	~20 nM	0.80	~200 nM	0.46	–	–	–	–	–
CCC[C@@H](N(NC(=O)c1cccc(OC)c1C)C(=O)c1cc(C)cc(C)c1)C(C)(C)C [Example 29, (R)-3,5-Dimethyl-benzoic acid N-(1-tert-butyl-butyl)-N′-(3-methoxy-2-methyl-benzoyl)-hydrazide]	141 to 143 °C	0.078 nM	1.05	~1 nM	1.08	–	–	–	–	–
CCC[C@H](N(NC(=O)c1cccc(OC)c1CC)C(=O)c1cc(C)cc(C)c1)C(C)(C)C [Example 31, (S)-3,5-Dimethyl-benzoic acid N-(1-tert-butyl-butyl)-N′-(2-ethyl-3-methoxy-benzoyl)-hydrazide]	–	–	–	–	–	does not induce RTS gene reporter expression	~30 nM	0.57	136 nM	0.52
C=CC[C@H](N(NC(=O)OCc1ccccc1)C(=O)c1cc(C)cc(C)c1)C(C)(C)C [Example 31.4, (S)—N′-(1-tert-butyl-but-3-enyl)-N′-(3,5-dimethyl-benzoyl)-hydrazine carboxylic acid benzyl ester]	150 to 151.5 °C	–	–	–	–	–	> 10000 nM	–	> 10000 nM	–
